Legend:
KRAS G12D = KRAS G12D (Homo sapiens (Human), UniProt P01116, G12D); test: SOS-catalyzed nucleotide exchange assay (GNE), KRAS G12D; format: biochemical; conditions: TR-FRET, 60 min preincubation
Description: (§1) Procedure for SOS-Catalyzed Nucleotide Exchange Assay for KRAS-WT, G12C/D/V/A/R/S, G13D, Q61H, HRAS-WT, and NRAS-WT
(§2) Recombinant KRAS-G12C protein used in this assay has an additional triple mutation (C51S/C80L/C118S). Whereas KRAS-WT, G12D/V/A/S/R, G13D, Q61H, HRAS and NRAS are in context of their WT protein sequence background. Specifically, the SOS-catalyzed nucleotide exchange assay utilizes a preformed TR-FRET complex containing a specific biotinylated RAS protein (KRAS-WT, G12C/V/D/A/S/R, G13D, Q61H, HRAS-WT, NRAS-WT; described above) with Bodipy-GDP, and Terbium-streptavidin. Compounds are preincubated with this complex for 60 minutes. Subsequently, recombinant human SOS protein and unlabeled GTP are added to initiate the exchange reaction. Small molecule inhibitors stabilize the Bodipy-GDP complex whereas the untreated protein rapidly exchanges Bodipy-GDP for unlabeled GTP resulting in reduced TR-FRET signal.
(§3) To assemble the preformed TR-FRET complexes, each biotinylated RAS protein is diluted to 2 μM in an EDTA Buffer (20 mM HEPES pH 7.5, 50 mM sodium chloride, 10 mM EDTA, and 0.01% Tween) and incubated at room temperature for one hour. This mixture is then further diluted to 90 nM in an Assay Buffer (20 mM HEPES pH 7.5, 150 mM sodium chloride, 10 mM magnesium chloride, and 0.005% Tween) containing 15 nM of Terbium-Streptavidin (Invitrogen, catalog #PV3577) and 900 nM of Bodipy-GDP (Invitrogen, catalog #G22360) and incubated at room temperature for six hours. It should be noted that this preformed TR-FRET complex for each of the RAS protein were made ahead of time, aliquoted and stored at −80° C. until the day of the experiment.
(§4) Each test compound (10 mM stock in DMSO) is diluted in DMSO to make a final-10-point, 3-fold dilution and is acoustically dispensed into a 384-well assay plate (Corning, catalog #3820) using an Echo 550 (Labcyte). Each well of the assay plate receives 3 μL of a specific 3×RAS preformed TR-FRET complex and 3 μL of Assay Buffer and is incubated at room temperature for 60 minutes (preincubation time). Each well then receives 3 μL of 3× recombinant human SOS protein and GTP (Sigma, G8877) in Assay Buffer and is incubated at room temperature for 30 minutes (G13D), 60 minutes (KRAS WT/G12C/D, H/NRAS) or 90 minutes for G12A/R/S/V and Q61H. The final reaction in each well of 9 μL consists of 3 mM GTP, specific Ras and SOS proteins in the following concentrations: KRAS-G12C/SOS=3 nM/40 nM, KRAS-WT and G12D/SOS=1 nM/40 nM, KRAS-G12V/SOS=1.25 nM/160 nM, KRAS-G12A/S/SOS=1 nM/160 nM, KRAS-G12R/SOS=1 nM/320 nM, KRAS-Q61H/SOS=1 nM/320 nM, KRAS-G13D/SOS=1.25 nM/[…], HRAS-WT and NRAS-WT=1.25 nM/40 nM.
(§5) The time-resolved fluorescence resonance energy transfer (TR-FRET) signal is measured on an Envision (PerkinElmer) plate reader: Excitation filter=340 nm; emission1=495 nm; emission2=520 nm; dichroic mirror=D400/D505; delay time=[…]. The signal of each well is determined as the ratio of the emission at 520 nm to that at 495 nm. Percent effect of each well is determined after normalization to control wells containing DMSO (no effect) or a saturating concentration of inhibitor (max effect). The apparent effect as a function of compound concentration is fit to a four-parameter logistic equation.

KRAS G12V = KRAS G12V (Homo sapiens (Human), UniProt P01116, G12V); test: SOS-catalyzed nucleotide exchange assay (GNE), KRAS G12V; format: biochemical; conditions: TR-FRET, 60 min preincubation
KRAS G12V, sequence (P01116 other isoform, or with tags, fused parts or gaps G12V (already in the parent)): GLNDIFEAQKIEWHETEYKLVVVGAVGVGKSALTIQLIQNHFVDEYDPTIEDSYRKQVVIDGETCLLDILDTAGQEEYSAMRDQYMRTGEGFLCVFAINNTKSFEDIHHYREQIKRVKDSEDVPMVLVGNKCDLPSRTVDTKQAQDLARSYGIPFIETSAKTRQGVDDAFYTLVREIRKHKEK
Description: as §1, §2, §3, §4, §5

KRAS G12R = KRAS G12R (Homo sapiens (Human), UniProt P01116, G12R); test: SOS-catalyzed nucleotide exchange assay (GNE), KRAS G12R; format: biochemical; conditions: TR-FRET, 60 min preincubation
KRAS G12R, sequence (P01116 other isoform, or with tags, fused parts or gaps G12R (already in the parent)): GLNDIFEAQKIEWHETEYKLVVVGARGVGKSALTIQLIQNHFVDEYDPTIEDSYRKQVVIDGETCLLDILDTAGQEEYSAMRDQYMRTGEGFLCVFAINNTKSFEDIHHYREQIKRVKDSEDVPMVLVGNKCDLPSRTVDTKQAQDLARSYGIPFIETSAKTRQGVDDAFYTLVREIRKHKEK
Description: as §1, §2, §3, §4, §5

[1] = Rat IV/PO pharmacokinetic studies; format: in vivo; conditions: for F % / bioavailability: oral bioavailability, PO 2 mg/kg vs. IV 1 mg/kg; for CLp / MRT / Vd / clearance / bioavailability: plasma; for CLp / MRT / Vd / clearance: IV 1 mg/kg; for clearance: read-out: CLp
Experimental: Procedure for Rat IV/PO Pharmacokinetic Studies
Plasma pharmacokinetic parameters for clearance, volume of distribution, half-life and oral bioavailability were determined in rats from oral administration and IV administration studies. 4 male rats, typically weighing 225-260 g, were fasted overnight prior to dosing. IV formulation was administered to 2 rats via pre-cannulated jugular vein, and oral dosing was administered to 2 rats via oral gavage. Blood was collected by pre-cannulated artery, typically at predose, 2, 8, 15, 30 min, 1, 2, 4, 6, and 8 hr postdose for IV, and at predose, 15, 30 min, 1, 2, 4, 6, 8 h for oral dosing. Samples were collected in K2EDTA tubes, stored on ice, and centrifuged. Plasma was transferred to a micro titer plate and stored at −70° C. until analysis. Plasma samples were extracted using protein precipitation and analyzed by liquid chromatography separation followed by mass spec detection (LC-MS/MS), using a standard curve for each compound. Plasma pharmacokinetic parameters were calculated for IV and oral dosing data by non-compartmental methods. Oral bioavailability was determined as the ratio of the dose-normalized plasma area under the curve (AUC) following oral dosing vs. IV dosing.

[2] = Dog IV/PO pharmacokinetic studies; format: in vivo; conditions: for F % / bioavailability: oral bioavailability, PO 0.5 mg/kg vs. IV; for CLp / MRT / Vd / clearance / bioavailability: plasma; for CLp / MRT / Vd / clearance: IV 0.25 mg/kg (Ex-2 0.05 mg/kg); for clearance: read-out: CLp
Experimental: Procedure for Dog IV/PO Pharmacokinetic Studies
Plasma pharmacokinetic parameters for clearance, volume of distribution, half-life, mean residence time (MRT) and oral bioavailability were determined in dogs from oral administration and IV administration studies. 4 male dogs, typically weighing 8-12 kg, were fasted overnight prior to dosing. IV formulation was administered to 2 dogs via the saphenous or cephalic vein, and oral dosing was administered to 2 dogs via oral gavage. Blood was collected by the cephalic or jugular vein, typically at predose, 2, 8, 15, 30 min, 1, 2, 4, 6, 8 and 24 h postdose for IV, and at predose, 15, 30 min, 1, 2, 4, 6, 8, and 24 hr for oral dosing. Samples were collected in K2EDTA tubes, stored on ice, and centrifuged. Plasma was transferred to a micro titer plate and stored at −70° C. until analysis. Plasma samples were extracted using protein precipitation and analyzed by liquid chromatography separation followed by mass spec detection (LC-MS/MS), using a standard curve for each compound. Plasma pharmacokinetic parameters were calculated for IV and oral dosing data by non-compartmental methods. Oral bioavailability was determined as the ratio of the dose-normalized plasma area under the curve (AUC) following oral dosing vs. IV dosing.

KRAS G12D, sequence (P01116 other isoform, or with tags, fused parts or gaps G12D (already in the parent)): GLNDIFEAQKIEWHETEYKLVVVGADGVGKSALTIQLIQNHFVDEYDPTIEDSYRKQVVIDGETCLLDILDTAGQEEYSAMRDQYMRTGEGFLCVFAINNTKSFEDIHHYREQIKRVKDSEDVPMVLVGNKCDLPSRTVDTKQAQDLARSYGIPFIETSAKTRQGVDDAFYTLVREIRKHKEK

SMILES	IC50 (KRAS G12D) [nM]	IC50 (KRAS G12V) [nM]	clearance ([1]; male) [mL/min/kg]	MRT ([1]; male, read-out: MRT) [h]	Vd ([1]; male, read-out: Vd) [L/kg]	bioavailability ([1]; male) [%]	clearance ([2]; male) [mL/min/kg]	MRT ([2]; male, read-out: MRT) [h]	Vd ([2]; male, read-out: Vd) [L/kg]	bioavailability ([2]; male) [%]	IC50 (KRAS G12R) [nM]	F % [1] [%]	CLp [1] [mL/min/kg]	MRT [1] [h]	Vd [1] [L/kg]	F % [2] [%]	CLp [2] [mL/min/kg]	MRT [2] [h]	Vd [2] [L/kg]
F/C=C1/CN2CCC[C@@]2(COc2nc3c4c(nc(-c5c(C6CC6)c(Cl)cc6[nH]ncc56)c(F)c4n2)OC[C@@H]2COCCCN32)C1 [Ex-1, (8aS)-5-(6-chloro-5-cyclopropyl-1H-indazol-4-yl)-4-fluoro-2-(((S,Z)-2-(fluoromethylene)tetrahydro-1H-pyrrolizin-7a(5H)-yl)methoxy)-8a,9,12,13-tetrahydro-8H,11H-7,10-dioxa-1,3,6,13a-tetraazanaphtho[1,8-ab]heptalene]	0.67	1.3									< 0.69	11	24	1.4	2.0	17	5.0	2.2	0.65
CCc1c(F)ccc2cc3[nH]ncc3c(-c3nc4c5c(nc(OC[C@@]67CCCN6C[C@H](F)C7)nc5c3F)N3CCCOC[C@H]3CO4)c12 [Ex-2, (8aS)-5-(5-ethyl-6-fluoro-1H-benzo[f]indazol-4-yl)-4-fluoro-2-(((2R,7aS)-2-fluorotetrahydro-1H-pyrrolizin-7a(5H)-yl)methoxy)-8a,9,12,13-tetrahydro-8H,11H-7,10-dioxa-1,3,6,13a-tetraazanaphtho[1,8-ab]heptalene]	0.65	1.3									< 0.69	10	40	2.5	6.1	29	18	2.4	2.6
Fc1c(-c2c(C3CC3)c(Cl)cc3[nH]ncc23)nc2c3c(nc(OC[C@@]45CCCN4C[C@H](F)C5)nc13)N1CCCOC[C@H]1CO2 [Ex-3, (8aS)-5-(6-chloro-5-cyclopropyl-1H-indazol-4-yl)-4-fluoro-2-(((2R,7aS)-2-fluorotetrahydro-1H-pyrrolizin-7a(5H)-yl)methoxy)-8a,9,12,13-tetrahydro-8H,11H-7,10-dioxa-1,3,6,13a-tetraazanaphtho[1,8-ab]heptalene]	1.3	3	40	1.7	4	7.5	10	3.6	2.2	15									
CCc1c(F)ccc2cc3[nH]nc(C)c3c(-c3nc4c5c(nc(OC[C@@]67CCCN6C/C(=C\F)C7)nc5c3F)N3CCCOC[C@H]3CO4)c12 [Ex-7, (8aS)-5-(5-ethyl-6-fluoro-3-methyl-1H-benzo[f]indazol-4-yl)-4-fluoro-2-(((S,Z)-2-(fluoromethylene)tetrahydro-1H-pyrrolizin-7a(5H)-yl)methoxy)-8a,9,12,13-tetrahydro-8H,11H-7,10-dioxa-1,3,6,13a-tetraazanaphtho[1,8-ab]heptalene]	1.4	2.8									1.3	15	35	1.9	4.0				

Now from value to compound, other results behind:

IC50 (KRAS G12D) [nM]	IC50 (KRAS G12V) [nM]	clearance ([1]; male) [mL/min/kg]	MRT ([1]; male, read-out: MRT) [h]	Vd ([1]; male, read-out: Vd) [L/kg]	bioavailability ([1]; male) [%]	clearance ([2]; male) [mL/min/kg]	MRT ([2]; male, read-out: MRT) [h]	Vd ([2]; male, read-out: Vd) [L/kg]	bioavailability ([2]; male) [%]	SMILES	IC50 (KRAS G12R) [nM]	F % [1] [%]	CLp [1] [mL/min/kg]	MRT [1] [h]	Vd [1] [L/kg]	F % [2] [%]	CLp [2] [mL/min/kg]	MRT [2] [h]	Vd [2] [L/kg]
< 0.69	0.83									CCc1c(F)ccc2cc3[nH]ncc3c(-c3nc4c5c(nc(OC[C@@]67CCCN6C/C(=C\F)C7)nc5c3F)N3CCCOC[C@H]3CO4)c12 [Ex-4, (8aS)-5-(5-ethyl-6-fluoro-1H-benzo[f]indazol-4-yl)-4-fluoro-2-(((S,Z)-2-(fluoromethylene)tetrahydro-1H-pyrrolizin-7a(5H)-yl)methoxy)-8a,9,12,13-tetrahydro-8H,11H-7,10-dioxa-1,3,6,13a-tetraazanaphtho[1,8-ab]heptalene]	< 0.69								
< 0.69	0.98									F/C=C1\CN2CCC[C@@]2(COc2nc3c4c(nc(-c5c(C6(F)CC6)c(Cl)cc6[nH]ncc56)c(F)c4n2)OC[C@@H]2COCCCN32)C1 [Ex-5, (8aS)-5-(6-chloro-5-(1-fluorocyclopropyl)-1H-indazol-4-yl)-4-fluoro-2-(((S,Z)-2-(fluoromethylene)tetrahydro-1H-pyrrolizin-7a(5H)-yl)methoxy)-8a,9,12,13-tetrahydro-8H,11H-7,10-dioxa-1,3,6,13a-tetraazanaphtho[1,8-ab]heptalene]	1.3								
1.3	1.5	36	2.4	5.1	18	8	7.8	3.7	59	CCc1c(F)ccc2cc3[nH]nc(C)c3c(-c3nc4c5c(nc(OC[C@@]67CCCN6C[C@H](F)C7)nc5c3F)N3CCCOC[C@H]3CO4)c12 [Ex-6, (8aS)-5-(5-ethyl-6-fluoro-3-methyl-1H-benzo[f]indazol-4-yl)-4-fluoro-2-(((2R,7aS)-2-fluorotetrahydro-1H-pyrrolizin-7a(5H)-yl)methoxy)-8a,9,12,13-tetrahydro-8H,11H-7,10-dioxa-1,3,6,13a-tetraazanaphtho[1,8-ab]heptalene]	1.2								

Source: patent publication US12466840B2, “Small molecule inhibitors of KRAS proteins” (Merck Sharp & Dohme LLC, priority 2023, dated 2025)
